These results are taken from US9253997B2, “Alkylamine derivative” (AJINOMOTO CO., INC., priority 2010, dated 2016).

The subject of one assay is serum iPTH. Put plainly: Effect of decreasing iPTH in rat by single dose of intravenous administration. The format is in vivo. The conditions noted are these: male SD (IGS) rat, 0.1 mg/kg, compared with cinacalcet. As for the experimental part: (Method) A single dose was given to male SD (IGS) rat under pentobarbital anesthesia from a tail vein to examine the transition of serum iPTH and serum Ca concentration. Blood was taken before the administration and 5, 15, 30 and 60 minutes after the administration.
Compound No. 1 (the compound described in Example 6) was dissolved in physiological saline. Meanwhile, cinacalcet as a control substance was dissolved in PEG400: Saline=1:1 solution.

For assay [1], the system named is NSAID-induced small intestine inflammation. Kind of assay: Effect against NSAID-induced small intestine inflammation. In kind it is in vivo, rat. The settings on record: 30 minutes before loxoprofen 60 mg/kg oral, 24 hours. As to the method:
(Method) To a non-fasting rat, Compound No. 1 or 2 (the compound described in Example 14) (10 mg/kg) or Compound No. 3 (the compound described in Example 48) (3, 10 or 30 mg/kg) was orally administered. After 30 minutes, loxoprofen (60 mg/kg) was orally administered and the rat was left for 24 hours. Thirty minutes before the autopsy, 1 ml of 1% (w/w) Evansblue dye was intravenously administered to the rat. The small intestine (from duodenum to ileum) of the animal euthanized under deep ether anesthesia was isolated and immersed in 2% formalin for 10 minutes to fix the small intestine from the serosa side. The small intestine was dissected from the opposite side of the mesentery to measure the injury area (mm^2) thereof under a 10× dissecting microscope. T-test or Dunnett's test was employed as the statistical test where p<0.05 was considered to indicate significant difference.

The subject of a further assay is large intestine loop. Put plainly: Water absorption action using rat colon loop technique. The format is in vivo. The settings on record: male SD (IGS) rat colon loop, PGE2 4 μg/ml/kg i.p., compound in Tyrode's solution injected into loop, 1 hour; FIGS. 5-8. As for the experimental part: (Method) Appendix and large intestine were isolated from a male SD (IGS) rat under pentobarbital anesthesia, which were ligated 5 cm below the appendix to prepare a large intestine loop. Immediately after loop preparation, PGE2 (4 μg/ml/kg, SIGMA) was intraperitoneally administered. Thirty minutes later, 2 ml of Tyrode's solution (NaCl 136.9 mM, KCl 2.7 mM, CaCl2.2H2O 1.8 mM, MgCl2.6H2O 1.04 mM, NaH2PO4.2H2O 0.04 mM, NaH2PO4.2H2O 0.04 mM, Glucose 5.55 mM, NaHCO3 11.9 mM) was injected into the prepared loop. An hour later, weight of the loop, weight of the loop after removing the fluid therefrom and the loop area were measured to calculate the weight of liquid remaining in the loop per unit area.
The above-described Compounds Nos. 1-3 and Compound No. 4 (the compound described in Example 47) were used as the test compounds while the agents were dissolved in Tyrode's solution. Remaining liquid measure per unit area (g/cm^2)=(weight of loop−weight of loop after removing fluid therefrom)/loop area.
Water absorption was assessed by calculating water regulating effect (%) according to the following formula. Water regulating effect (%)=100−(remaining liquid measure per unit area obtained with agent−average remaining liquid measure per base unit area)/(remaining liquid measure per unit area obtained with vehicle−average remaining liquid measure per base unit area)×100.

The next assay addresses human CaSR (Homo sapiens (Human), UniProt P41180). Kind of assay: Assessment of CaSR agonistic activity (FLIPR Ca2+ fluorescence). The format is cell-based. The settings on record: 293E cells transfected with hCaSR/pcDNA3.1, Calcium 4 Assay Kit, 1.5 mM CaCl2 assay buffer. As to the method: CaSR gene was prepared according to the method described in Example 1 of WO07/55393. The resulting recombinant plasmid was used to generate human CaSR-expressing plasmid hCaSR/pcDNA3.1.
293E cells (EBNA1-expressing IIEK293 cells, ATCC No. CRL-10852) were cultured in DMEM ([…] Glucose-containing Dulbecco's modified Eagle medium, Nacalai Tesque) containing 10% bovine fetal serum in the presence of 250 μg/ml of G418. The cells were seeded on a 10 cm-diameter petri dish at 1.8×10^6 cells/15 ml, and left to stand in a CO2 incubator (5% CO2, 37° C.) for 24 hours. Thereafter, human CaSR expression plasmid hCaSR/pcDNA3.1 was transfected with transfection reagent Mirus Trans IT 293 (Takara Bio). Following static culture in a CO2 incubator for 24 hours, the cells were harvested with 10% bovine fetal serum-containing DMEM and seeded on a poly-D-lysine coat 384 well plate (Falcon) at 15,000 cells/well. Following static culture in a CO2 incubator for 24 hours, the medium was removed and the resultant was added with 50 μl/well of Ca^2+ fluorescent indicator Calcium 4 Assay Kit (Molecular Devices) dissolved in an assay buffer (146 mM NaCl, 5 mM KCl, 1 mM MgSO4, 1 mg/ml Glucose, 20 mM HEPES (PH 7.2), 1.5 mM CaCl2), and left to stand at 37° C. for an hour and then at room temperature for 30 minutes to allow intake of the indicator. The above-mentioned 384-well plate was transferred to FLIPR (Molecular Devices) and added with 12.5 μl/well of a compound dissolved in a 0.1% BSA-containing assay buffer to measure 3-minute change in the fluorescence intensity.
The difference between maximum and minimum fluorescence intensities before and after compound addition (RFU (Max-Min)) was determined by FLIPR automatic calculation. An activity rate was calculated where RFU (Max-Min) upon addition of a compound at a maximum concentration was defined 100% and RFU (Max-Min) upon addition of DMSO as a substitute for the compound at the same concentration was defined 0%. […]

Where [2] appears, read: non-fasting rat, 10 mg/kg oral, FIG. 3.

human CaSR, sequence (P41180 20-1078): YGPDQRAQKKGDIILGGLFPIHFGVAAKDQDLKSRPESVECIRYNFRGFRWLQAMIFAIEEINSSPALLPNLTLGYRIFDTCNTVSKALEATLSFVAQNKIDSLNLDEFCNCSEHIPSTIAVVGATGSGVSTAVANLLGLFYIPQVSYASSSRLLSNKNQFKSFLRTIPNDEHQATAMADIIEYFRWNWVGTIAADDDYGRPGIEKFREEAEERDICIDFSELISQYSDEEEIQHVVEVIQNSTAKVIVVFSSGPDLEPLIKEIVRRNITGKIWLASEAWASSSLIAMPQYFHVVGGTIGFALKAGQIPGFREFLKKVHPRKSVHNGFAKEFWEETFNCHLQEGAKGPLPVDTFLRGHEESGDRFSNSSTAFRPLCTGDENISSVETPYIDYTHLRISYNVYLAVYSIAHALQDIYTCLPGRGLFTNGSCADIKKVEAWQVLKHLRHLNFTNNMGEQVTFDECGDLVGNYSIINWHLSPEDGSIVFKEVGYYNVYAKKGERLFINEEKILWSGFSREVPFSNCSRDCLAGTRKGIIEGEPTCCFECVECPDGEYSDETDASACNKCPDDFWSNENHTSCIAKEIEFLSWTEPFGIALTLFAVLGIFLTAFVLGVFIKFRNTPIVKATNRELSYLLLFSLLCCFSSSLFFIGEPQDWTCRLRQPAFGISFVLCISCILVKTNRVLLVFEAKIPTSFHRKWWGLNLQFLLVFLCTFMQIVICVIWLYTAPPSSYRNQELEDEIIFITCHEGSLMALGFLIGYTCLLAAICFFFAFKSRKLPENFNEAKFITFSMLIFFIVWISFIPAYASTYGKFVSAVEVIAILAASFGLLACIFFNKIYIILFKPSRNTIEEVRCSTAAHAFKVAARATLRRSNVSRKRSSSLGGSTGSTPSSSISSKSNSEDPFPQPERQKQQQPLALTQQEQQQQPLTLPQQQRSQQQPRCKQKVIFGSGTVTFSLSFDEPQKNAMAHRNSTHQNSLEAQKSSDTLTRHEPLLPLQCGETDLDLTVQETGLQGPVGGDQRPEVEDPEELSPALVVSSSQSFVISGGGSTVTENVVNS

As for `N[C@@H](CNC(=O)Nc1cc(Cl)cc(S(=O)(=O)O)c1O)C(=O)O` [Example 6, (2S)-2-amino-3-{[(5-chloro-2-hydroxy-3-sulfophenyl)carbamoyl]amino}propanoic acid], the “decreasing serum iPTH” value in the assay with serum iPTH (FIG. 1) is reported as “almost the same effect as cinacalcet”. The “decreasing serum Ca” value in the assay on serum iPTH (FIG. 2) was “almost the same effect as cinacalcet”. Besides, in assay [1] (setting [2]), the “injury area of small intestine” value is listed as “significantly improved the injury area”. The “water absorption (water regulating effect)” value (shortened to “water absorption”) with large intestine loop is listed as “promoted water absorption in a dose-depending manner”.

What is called EC50 is the concentration that produces a half-maximal response. With `Cc1c(Cl)cc(S(=O)(=O)O)cc1NC(=O)NC[C@H](N)C(=O)O` [Example 14, (2S)-2-amino-3-{[(3-chloro-2-methyl-5-sulfophenyl)carbamoyl]amino}propanoic acid], the half-maximal effective concentration (EC50) at human CaSR came out at 0.003 µM. Also, the “injury area of small intestine” value in assay [1] (setting [2]) is “showed a tendency to improve the injury area”. The “water absorption” value with large intestine loop is recorded as “promoted water absorption in a dose-depending manner”.

`Cc1c(Cl)cc(S(=O)(=O)O)cc1NC(=S)NC[C@H](N)C(=O)O` [Example 47, (2S)-2-amino-3-{[(3-chloro-2-methyl-5-sulfophenyl)carbamothioyl]amino}propanoic acid]: in the assay with large intestine loop, the “water absorption” value was “promoted water absorption in a dose-depending manner”.

Take `Cc1c(Cl)cc(NC(=S)NC[C@H](N)C(=O)O)cc1S(=O)(=O)O` [Example 48, (2S)-2-amino-3-{[(3-chloro-4-methyl-5-sulfophenyl)carbamothioyl]amino}propanoic acid]: in assay [1] (non-fasting rat, 3, 10 or 30 mg/kg oral, FIG. 4), the “injury area of small intestine” value is listed as “showed a tendency to improve the injury area”. The “water absorption” value in the assay on large intestine loop is reported as “promoted water absorption in a dose-depending manner”.

In the case of `N[C@@H](CCC(=O)Nc1cc(Cl)cc(S(=O)(=O)O)c1O)C(=O)N1CCOCC1` [Example 58, 3-[(4S)-4-amino-5-(morpholine-4-yl)-5-oxopentanamide]-5-chloro-2-hydroxybenzene-1-sulfonic acid], on human CaSR, the EC50 is 3.1 µM.

`N[C@@H](CCC(=O)Nc1cc(Cl)cc(S(=O)(=O)O)c1O)C(=O)NC1CCCCCC1` [Example 60, 3-[(4S)4-amino-4-(cycloheptylcarbamoyl)butanamide]-5-chloro-2-hydroxybenzene-1-sulfonic acid]: the EC50 at human CaSR amounted to 3.4 µM.
